Columns and labels:
epidermal stem cells = assay: Anchorage-independent growth in soft agar; conditions: SCC cancer initiating cells as positive control
[1] = Intraperitoneal glucose tolerance test (IPGTT) in grafted mice fed HFD; type: in vivo, mouse
Method: For glucose tolerance testing, an intraperitoneal glucose tolerance test (IPGTT) was performed on mice fed an HFD for 10 weeks. Mice were fasted for 6 h before the test. Animals were injected (1 g/kg glucose/body weight, i.p.) with glucose dissolved in saline, and blood glucose was measured at 0, 10, 20, 30, 60 and 90 minutes using glucose test strips and glucose meters.
IPGTT was performed to examine glucose homeostasis.
(§1) For glucose and insulin tolerance tests, an intraperitoneal glucose tolerance test (IPGTT) was performed on mice fed an HFD for 10 weeks. Mice were fasted for 6 h before the test. Animals were injected (1 g/kg glucose/body weight, i.p.) with glucose dissolved in saline, and blood glucose was measured at 0, 30, 60 and 90 min using glucose test strips and glucose meters. An intraperitoneal insulin tolerance test was carried out 1 week after IPGTT. Mice were fasted for 4 h and injected (2 U/kg, i.p.) with insulin purchased from Sigma (St. Louis, MO). Blood glucose levels were determined thereafter at 0, 30, 60 and 90 min.
(§2) To examine glucose homeostasis, IPGTT (intraperitoneal glucose tolerance test) and ITT (insulin tolerance test) were performed.

[2] = GLP1 level in blood by ELISA, CD1 mice grafted with mouse skin organoids; type: in vivo
Method: To investigate the potential therapeutic effect of GLP1 in vivo, skin organoid cultures with epidermal keratinocytes targeted with a GLP1-expression vector or a control vector, and transplant the organoids to CD1 host animals (FIGS. 11A and 11B-C) were prepared. […] Expression of GLP1 in grafted animals was stable for more than 3 months (FIG. 11K).

[3] = GLP1 level in blood by ELISA, nude mice grafted with human skin organoids; type: in vivo, mouse; conditions: human GLP1-expressing grafts, doxycycline food
Text: The engineered cells stratified and formed skin organoids in vitro, which were transplanted to nude hosts (FIG. 13G-H).

insulinoma cells = assay: Insulin secretion of starved insulinoma cells treated with conditioned medium (ELISA); type: cell-based
[4] = test system: mouse epidermal stem cells; assay: Cell proliferation and differentiation of engineered mouse epidermal cells in vitro (cell cycle FACS, calcium shift western blot); type: cell-based
Method: (§3) Primary human neonatal epidermal keratinocytes were obtained from Thermo Fischer® (C0015C), and cultured with Epilife® medium (Thermo Fischer, M-EPICF-500) with manufacturer's recommended procedures. Calcium shift was performed to induce differentiation of primary keratinocytes by increasing the calcium concentration in culture media to 1.5 mM.
(§4) Propidium iodide (PI) staining followed by flow cytometry were used to determine the effect of cell cycle profiles. Mouse and human epidermal cells were cultured in two 6 cm cell culture dish for 24 hours, respectively. Cells were trypsinized, and 1×10^5 cells from each dish were collected, followed by one PBS wash. […] After staining, the cells were analyzed immediately using flow cytometer BD FACSCanto™ II (BD Biosciences, San Jose, CA) with an excitation wavelength at 488 nm and emission at 585 nm. DNA content and histograms of cell cycle distribution were analyzed using FlowJo™ software, version 10 (FLOWJO LLC, OR).
(§5) Western blotting was performed as described previously (Blanpain et al.). […] Visualization and quantification was carried out with the LI-COR Odyssey® scanner and software (LI-COR Biosciences).
(§6) Propidium iodide (PI) staining followed by flow cytometry were used to determine the effect of cell cycle profiles. […] DNA content and histograms of cell cycle distribution were analyzed using FlowJo™ software, version 10 (FLOWJO LLC, OR). […]

[5] = Intraperitoneal insulin tolerance test (ITT) in grafted mice; type: in vivo, mouse; conditions: vs control mice or GLP1 mice without doxycycline
Method: as §1, §2

[6] = test system: human epidermal keratinocytes; assay: Cell proliferation and differentiation of engineered human epidermal cells in vitro; type: cell-based
Method: as §3, §4, §5, §6

human epidermal cells = assay: Secretion of GLP1 in culture medium by ELISA (human epidermal cells); type: cell-based; conditions: engineered human epidermal cells, doxycycline
Text: To examine CRISPR-mediated genome editing in human epidermal cells, vectors encoding two gRNAs targeting human AAVS1 (adeno-associated virus integration site 1) locus, and an AAVS1-targeting vector (FIG. 16A) that harbors a tetracycline-inducible expression cassette encoding the GLP-1 and IgG-Fc fragment fusion protein were used. […] Clones were isolated and correct integration confirmed by southern blotting analysis (FIG. 13D).

mouse epidermal cells = assay: Secretion of GLP1 in cell culture medium by ELISA (mouse epidermal cells); type: cell-based

GLP1
anchorage-independent growth (tumorigenicity) (epidermal stem cells): cannot grow in suspension | glycemic excursion ([1]; GLP1/GGBP grafts, blood glucose and GGBP imaging): significantly reduced glycemic excursion | glycemic excursion ([1]; HFD, doxycycline-induced GLP1): significantly reduced glycemic excursion | level of GLP1 in the blood ([2]; food containing doxycycline): significantly enhanced level of GLP1 in the blood | duration of stable GLP1 expression in grafted animals ([2]; mouse, in vivo): more than 3 months | GLP1 in the blood [3]: significant secretion of GLP1 was detected in the blood | insulin secretion induced by conditioned medium (insulinoma cells; conditioned medium from mouse epidermal cells): significantly induce secretion of insulin | insulin secretion induced by secreted GLP1 fusion protein (insulinoma cells; from human epidermal cells): induced insulin secretion in vitro | effect of expression on cell proliferation / differentiation in vitro [4]: did not significantly change cell proliferation | insulin resistance [5]: significantly reduced insulin resistance | effect of expression on cell proliferation / differentiation in vitro [6]: did not significantly change cell proliferation | GLP1 production (human epidermal cells): strong GLP1 production upon dose-dependent stimulation with doxycycline | GLP1 production and secretion (mouse epidermal cells; GLP1/GGBP expression cassette, constitutive): robust GLP1 production and secretion | GLP1 production (mouse epidermal cells; tetracycline-inducible cassette, doxycycline stimulation): robust GLP1 production upon stimulation with doxycycline in a dose-dependent manner
